This passage reports IC50, AC50 and EC50 results from ChEMBL document CHEMBL1201862, “PubChem BioAssay data set” (2004).

A short description of data set [1]: cells. It is filed as functional.
Data set [2] addresses T1, Rac GTPase-activating protein 1 (Homo sapiens, UniProt Q9H0H5).
T1 sequence (Q9H0H5 whole entry): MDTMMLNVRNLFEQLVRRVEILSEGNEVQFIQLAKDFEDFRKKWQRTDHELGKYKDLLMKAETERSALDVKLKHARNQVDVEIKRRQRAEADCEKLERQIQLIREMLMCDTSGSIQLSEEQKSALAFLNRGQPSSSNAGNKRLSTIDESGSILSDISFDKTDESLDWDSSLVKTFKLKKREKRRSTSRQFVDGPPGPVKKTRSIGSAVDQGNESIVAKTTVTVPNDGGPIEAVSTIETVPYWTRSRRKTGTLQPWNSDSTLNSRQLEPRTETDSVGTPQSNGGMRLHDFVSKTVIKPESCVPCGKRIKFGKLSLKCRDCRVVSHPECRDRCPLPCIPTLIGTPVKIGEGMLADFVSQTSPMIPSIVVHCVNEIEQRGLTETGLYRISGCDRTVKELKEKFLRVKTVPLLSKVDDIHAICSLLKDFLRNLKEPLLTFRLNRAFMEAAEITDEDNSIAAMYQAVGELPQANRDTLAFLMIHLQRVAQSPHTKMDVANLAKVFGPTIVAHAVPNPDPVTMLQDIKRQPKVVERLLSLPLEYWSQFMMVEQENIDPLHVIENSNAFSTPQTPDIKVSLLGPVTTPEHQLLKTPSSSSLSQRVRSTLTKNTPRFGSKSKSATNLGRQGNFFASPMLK
As to the kind of experiment: MgcRacGAP GTPase-activating activity inhibitors, confirmation, biochemical, ADP Hunter fluorescence, primary and confirmatory (AID 624330). It is filed as functional.

The target of data set [3] is T2, Cytochrome P450 1A2 (Homo sapiens, UniProt P05177).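 Further: PubChem cytochrome P450 panel assay, CYP1A2 panel member.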
T2 sequence (P05177 whole entry): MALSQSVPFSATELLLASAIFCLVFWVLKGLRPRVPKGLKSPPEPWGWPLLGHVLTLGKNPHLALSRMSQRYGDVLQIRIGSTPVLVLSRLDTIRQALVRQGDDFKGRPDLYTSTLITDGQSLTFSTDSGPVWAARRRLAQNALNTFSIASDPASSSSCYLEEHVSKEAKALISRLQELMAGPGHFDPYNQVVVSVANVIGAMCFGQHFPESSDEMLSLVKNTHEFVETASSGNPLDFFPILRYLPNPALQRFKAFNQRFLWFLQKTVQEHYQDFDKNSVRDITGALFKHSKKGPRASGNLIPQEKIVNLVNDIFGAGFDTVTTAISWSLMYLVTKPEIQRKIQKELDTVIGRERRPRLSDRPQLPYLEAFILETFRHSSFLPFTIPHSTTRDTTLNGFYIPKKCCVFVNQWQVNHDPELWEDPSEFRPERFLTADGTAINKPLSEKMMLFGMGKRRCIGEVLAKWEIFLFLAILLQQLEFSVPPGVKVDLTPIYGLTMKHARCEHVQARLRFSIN

Data set [4] concerns the target Cytochrome P450 3A4 (Homo sapiens, UniProt P08684).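 Further: CYP3A4 tested as one member of a cytochrome P450 panel screen.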
In data set [5] the target is Cytochrome P450 2D6 (Homo sapiens, UniProt P10635).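 Further: CYP2D6 member of a cytochrome P450 panel assay.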
Chain of Cytochrome P450 2D6 (P10635 whole entry): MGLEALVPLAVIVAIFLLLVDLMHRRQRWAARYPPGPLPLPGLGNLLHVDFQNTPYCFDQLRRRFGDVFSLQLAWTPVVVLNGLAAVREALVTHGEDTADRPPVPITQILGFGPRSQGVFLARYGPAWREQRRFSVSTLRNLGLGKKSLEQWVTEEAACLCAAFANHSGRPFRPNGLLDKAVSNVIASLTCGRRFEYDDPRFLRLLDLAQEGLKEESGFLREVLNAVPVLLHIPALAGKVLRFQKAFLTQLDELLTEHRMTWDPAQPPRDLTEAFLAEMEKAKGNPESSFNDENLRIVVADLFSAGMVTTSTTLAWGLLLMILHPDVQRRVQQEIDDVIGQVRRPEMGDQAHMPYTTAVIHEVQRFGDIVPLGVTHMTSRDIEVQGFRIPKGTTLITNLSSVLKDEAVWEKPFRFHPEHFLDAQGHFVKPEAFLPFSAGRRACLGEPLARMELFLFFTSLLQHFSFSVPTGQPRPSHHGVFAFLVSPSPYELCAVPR
Data set [6] deals with Cytochrome P450 2C9 (Homo sapiens, UniProt P11712).
Chain of Cytochrome P450 2C9 (P11712 whole entry): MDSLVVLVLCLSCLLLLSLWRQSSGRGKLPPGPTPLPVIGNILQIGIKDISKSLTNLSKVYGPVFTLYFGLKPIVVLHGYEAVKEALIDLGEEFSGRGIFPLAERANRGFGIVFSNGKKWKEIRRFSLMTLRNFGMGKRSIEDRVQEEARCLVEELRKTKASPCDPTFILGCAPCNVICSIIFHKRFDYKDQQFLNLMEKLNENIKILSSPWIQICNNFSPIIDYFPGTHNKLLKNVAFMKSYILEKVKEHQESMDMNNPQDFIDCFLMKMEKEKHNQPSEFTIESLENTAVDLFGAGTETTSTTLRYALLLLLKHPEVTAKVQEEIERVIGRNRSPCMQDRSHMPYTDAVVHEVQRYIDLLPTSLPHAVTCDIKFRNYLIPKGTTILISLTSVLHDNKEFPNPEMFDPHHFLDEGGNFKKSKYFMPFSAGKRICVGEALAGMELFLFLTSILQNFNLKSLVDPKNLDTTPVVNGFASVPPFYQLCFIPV
In data set [7] the target is Cytochrome P450 2C19 (Homo sapiens, UniProt P33261). As to the kind of experiment: Cytochrome panel assay with activity outcomes. Panel member name: p450-cyp2c19 Compounds with AC50 equal or less than 10 uM are considered active. It is filed as functional.
Chain of Cytochrome P450 2C19 (P33261 whole entry): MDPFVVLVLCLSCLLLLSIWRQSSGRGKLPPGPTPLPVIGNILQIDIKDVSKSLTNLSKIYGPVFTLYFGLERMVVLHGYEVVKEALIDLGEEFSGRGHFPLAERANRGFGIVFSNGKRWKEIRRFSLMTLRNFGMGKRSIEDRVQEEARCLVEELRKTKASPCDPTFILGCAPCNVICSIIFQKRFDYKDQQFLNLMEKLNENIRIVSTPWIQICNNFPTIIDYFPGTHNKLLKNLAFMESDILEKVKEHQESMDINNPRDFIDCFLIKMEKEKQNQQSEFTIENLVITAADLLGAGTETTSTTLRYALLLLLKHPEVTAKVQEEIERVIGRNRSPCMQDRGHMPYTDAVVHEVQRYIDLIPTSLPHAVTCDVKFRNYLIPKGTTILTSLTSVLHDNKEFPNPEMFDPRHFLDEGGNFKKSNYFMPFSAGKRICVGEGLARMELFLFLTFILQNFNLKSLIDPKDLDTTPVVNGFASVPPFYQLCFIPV
The nature of data set [8]: inhibitors of intracellular T. cruzi replication, confirmation, NIH3T3 host cells, beta-gal luminescence (AID 2044).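 Further: intracellular parasites grown in NIH/3T3 mouse fibroblasts as host cells; luminescent beta-galactosidase reporter signal from transgenic T. cruzi replicating inside host cells; inhibitors lower the luminescence signal.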 It is filed as functional, cell-based.
Data set [9] can be described thus: cytotoxicity toward NIH3T3 fibroblasts, dose response, counter-screen, cell-based, ATP luminescence, mouse fibroblasts (AID 2010).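 Further: cells exposed to compound for about 90 hours before reading.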 It is filed as functional.
The target of data set [10] is T3, Corticotropin-releasing factor receptor 2/Corticotropin-releasing factor-binding protein (Homo sapiens, UniProt P24387+Q13324).
T3 sequence (Q13324 whole entry): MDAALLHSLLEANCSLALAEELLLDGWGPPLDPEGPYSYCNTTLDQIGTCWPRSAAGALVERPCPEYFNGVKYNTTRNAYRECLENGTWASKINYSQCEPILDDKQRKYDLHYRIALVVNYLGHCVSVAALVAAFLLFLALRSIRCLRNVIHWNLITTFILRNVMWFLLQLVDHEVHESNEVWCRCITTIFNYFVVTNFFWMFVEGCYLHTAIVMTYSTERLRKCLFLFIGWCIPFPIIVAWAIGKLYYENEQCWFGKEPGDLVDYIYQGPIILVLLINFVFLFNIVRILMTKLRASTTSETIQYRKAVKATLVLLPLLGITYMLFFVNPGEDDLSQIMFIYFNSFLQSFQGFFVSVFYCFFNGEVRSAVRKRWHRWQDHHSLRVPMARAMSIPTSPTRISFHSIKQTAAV
T3 sequence (P24387 whole entry): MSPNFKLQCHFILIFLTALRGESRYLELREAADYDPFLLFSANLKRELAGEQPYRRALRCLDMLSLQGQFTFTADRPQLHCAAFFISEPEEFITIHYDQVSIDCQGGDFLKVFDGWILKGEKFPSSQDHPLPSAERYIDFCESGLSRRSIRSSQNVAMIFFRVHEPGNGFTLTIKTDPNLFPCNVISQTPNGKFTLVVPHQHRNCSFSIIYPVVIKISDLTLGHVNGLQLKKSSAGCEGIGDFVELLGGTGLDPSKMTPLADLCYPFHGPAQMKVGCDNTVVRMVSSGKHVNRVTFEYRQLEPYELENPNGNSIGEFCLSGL
The experiment in a line: Dose Response confirmation of uHTS hits for small molecule antagonists of the CRF-binding protein and CRF-R2 receptor complex. The note with it: read-out: IC50_Mean. It is filed as functional.

For data set [11], the target named is T3, Corticotropin-releasing factor receptor 2/Corticotropin-releasing factor-binding protein. As to the kind of experiment: activators of CRF receptor 2 with binding protein – uHTS hits, confirmation (AID 602473). It is filed as functional. The following applies: read-out: EC50_Mean.

The source made the active and inactive calls.

Chain of Cytochrome P450 3A4 (P08684 whole entry): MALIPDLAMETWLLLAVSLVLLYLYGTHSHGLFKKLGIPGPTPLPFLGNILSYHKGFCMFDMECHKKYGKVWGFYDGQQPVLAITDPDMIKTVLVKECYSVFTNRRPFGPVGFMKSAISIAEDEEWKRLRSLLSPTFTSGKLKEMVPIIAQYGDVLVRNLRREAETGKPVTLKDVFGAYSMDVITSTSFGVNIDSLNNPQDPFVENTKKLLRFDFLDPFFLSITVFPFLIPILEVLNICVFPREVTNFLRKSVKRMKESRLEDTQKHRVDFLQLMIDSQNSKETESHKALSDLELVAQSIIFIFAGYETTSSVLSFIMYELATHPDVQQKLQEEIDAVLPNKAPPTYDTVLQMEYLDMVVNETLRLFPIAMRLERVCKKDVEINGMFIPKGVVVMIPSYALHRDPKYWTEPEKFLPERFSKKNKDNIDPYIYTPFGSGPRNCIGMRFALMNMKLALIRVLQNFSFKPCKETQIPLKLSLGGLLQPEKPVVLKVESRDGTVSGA

On to `O=C(COc1ccc(Nc2ccccc2)cc1)OCC(=O)N1CCCCC1`, for which the IC50 in [1] is 2.49 µM (active); in [2] it was 98.2 µM (active). With `Cc1cc(C)c(OCCCCN2CCC(C)CC2)c(Br)c1`, the IC50 in data set [2] was 212 µM (active). On to `c1ccc(N2CC[C@@]3(CCCNC3)C2)cc1`, for which the AC50 in [3] is 39.8 µM (inconclusive); in [4], 20 µM (inconclusive); in [5] it was 10 µM (inconclusive). `C=CCOc1c2ccc(C(=O)NC3CCCc4ccccc43)cc2nn1C` (stereo not given): the AC50 in data set [3] was 15.8 µM (inconclusive); in data set [5], 22.4 µM (inconclusive).

Take `COc1ccc(-c2cnnc(CCCn3ccnc3-c3ccccc3)n2)cc1`: the AC50 is 0.0126 µM (inconclusive) in data set [6] and 7.94 µM (inconclusive) in data set [7] (read-out: AC50). Take `CC(=O)n1c(COS(C)(=O)=O)nc2ccccc21`: the AC50 was 3.16 µM (inconclusive) in [4] and 5.01 µM (inconclusive) in data set [5]. `Clc1cc(Br)ccc1OCCOCCN1CCCC1`: the IC50 in data set [2] was 135 µM (active). Also, the EC50 was 1.46 µM (active) in data set [8] and > 60 µM (not active) in data set [9].

As to `Cc1cc(OCc2ccc([N+](=O)[O-])cc2)c2c3c(c(=O)oc2c1)CCCC3`, the figures for the AC50 in data set [4] and in [5] were 2.82 µM (inconclusive) and 3.16 µM (inconclusive), respectively.

As to `CCC(C)NC(=O)c1ccccc1NC(=O)Nc1ccccc1` (stereo not given), the figures for the AC50 in [3] and in data set [6] were 3.16 µM (inconclusive) and 15.8 µM (inconclusive), respectively. As to `CNc1ncncc1-c1ccccc1OC`, the AC50 is 1.58 µM (inconclusive) in [3] and 0.251 µM (inconclusive) in data set [4]. With `CCC[C@@H]1C[C@@]1(CCC)C(NS(=O)(=O)c1cccc2cccnc12)c1ccc(Cl)cc1` (stereo not given in full), in data set [5], the AC50 is 39.8 µM (inconclusive).

Turning to `O=C(CCCC(=O)c1ccccc1)Nc1ccc(O)cc1`, the IC50 in data set [2] was 15.8 µM (active).

For `O=c1c2ccccc2nc(N2CCCC2)n1-c1ccc(Cl)cc1`, in data set [10], the IC50 was > 47.1 µM (inactive). For the same compound, the concentration at half-maximal activity (AC50) is 1.26 µM (inconclusive) in data set [7] (read-out: AC50) and 10 µM (inconclusive) in data set [5]. The EC50 in data set [11] was > 53 µM (inactive). Regarding `CC1CCN(CCc2nc3cc(NC(=O)NC4CCCCC4)ccc3n2C)CC1`, in [5], the AC50 was 25.1 µM (inconclusive). Take `CCc1ccc(N(C(=O)CNC(=O)c2cccs2)C(C(=O)NC(C)(C)C)c2cc(OC)c(OC)c(OC)c2)cc1` (stereo not given): the AC50 in data set [6] was 28.2 µM (inconclusive); in data set [7] (read-out: AC50) it was 0.00794 µM (inconclusive).

Turning to `CC(=O)Nc1cccc(-c2csc(NCc3ccccc3)n2)c1`, in data set [2], the IC50 was 65 µM (active). Consider `CCOC(=O)c1[nH]c(COC(=O)CCOc2ccccc2OC)c(C(=O)OCC)c1C`, for which the AC50 in [5] is 15.8 µM (inconclusive). In the case of `O=C(Oc1ccccc1)c1ccc(NC(=O)c2ccco2)cc1`, the IC50 was > 47.1 µM (inactive) in data set [10] and 4.4 µM (active) in data set [1]. Besides, the EC50 in data set [11] is > 53 µM (inactive). For `N#CC(c1ccccc1F)(c1ncc(C(F)(F)F)cc1Cl)N1CCOCC1` (stereo not given), the AC50 was 25.1 µM (inconclusive) in data set [3], 31.6 µM (inconclusive) in data set [6] and 22.4 µM (inconclusive) in [4]. Regarding `Cc1cc(C)cc(C(=O)OC2C[C@H]3CC[C@@H](C2)N3C)c1` (stereo not given in full), the AC50 was 25.1 µM (inconclusive) in data set [3] and 39.8 µM (inconclusive) in data set [7] (read-out: AC50). Consider `Cn1cnnc1SCC(=O)OCN1C(=O)c2ccccc2C1=O`, for which the AC50 in [3] was 25.1 µM (inconclusive); in data set [7] (read-out: AC50) it was 10 µM (inconclusive).

On to `COc1ccc(OC(=O)c2cc(S(=O)(=O)N3CCCC3)ccc2Cl)cc1`, for which the IC50 in data set [2] is 63 µM (active). As to `CCN1C(=O)C(O)(CC(=O)/C=C/C=C/c2ccccc2)c2ccccc21` (stereo not given), the values for the AC50 in [6], in [4] and in data set [7] (read-out: AC50) were 0.141 µM (inconclusive), 17.8 µM (inconclusive) and 35.5 µM (inconclusive), respectively.

As for `O=[N+]([O-])c1ccc2c(c1)N=C1O[C@H](c3ccc([C@H]4OC5=Nc6cc([N+](=O)[O-])ccc6NC5=C4O)cc3)C(O)=C1N2`, the AC50 in data set [3] and in data set [4] was 3.16 µM (inconclusive) each time. Regarding `O=C(CCNc1cccc(Cl)c1)c1cccs1`, the values for the concentration at half-maximal activity (AC50) in data set [6] and in data set [5] were 20 µM (inconclusive) and 22.4 µM (inconclusive), respectively. Moreover, in data set [1], the IC50 is 20 µM (active). Take `O=c1c(-c2cc(F)cc(F)c2)nc2cnc(N3CCNCC3)nc2n1Cc1cccs1`: the AC50 is 2.51 µM (inconclusive) in data set [3] and 39.8 µM (inconclusive) in data set [7] (read-out: AC50). Regarding `COc1ccc(COC(=O)N/N=C2/C[C@@H](O)[C@@H](O)[C@@H]3[C@@H]4C(=O)N(c5cccc(Oc6ccccc6)c5)C(=O)[C@H]4CC[C@H]23)cc1`, the AC50 in data set [5] is 2.51 µM (inconclusive). Take `CCCC1CCC(c2ccc(C(N)=O)cc2)CC1` (stereo not given): the AC50 is 0.0158 µM (inconclusive) in [6] and “inconclusive” in data set [7]. As to `CCN(CC)c1ccc(NC(=O)COC(=O)CCC(=O)c2cccs2)cc1`, in data set [2], the IC50 is 74.4 µM (active). On the same count and under the same terms, the figure for `O=C(NN=Cc1ccc(O)cc1O)c1ccccc1NS(=O)(=O)c1cccs1` is 110 µM (active).

Consider `O=C(c1cn(-c2ccccc2)nc1-c1cccs1)N1CCOCC1`, for which the AC50 in [6] and in data set [7] (read-out: AC50) was 39.8 µM (inconclusive) each time. As to `COc1cc(CNCc2cccs2)ccc1OCC(=O)NC(C)(C)C`, in [5], the AC50 was 10 µM (inconclusive). Regarding `C[C@H]1CCCC=CC2C[C@H](O)C[C@@H]2[C@H](O)/C=C\C(=O)O1` (stereo not given in full), the half-maximal activity concentration (AC50) is 15.8 µM (inconclusive) in data set [3], 15.8 µM (inconclusive) in data set [6] and 31.6 µM (inconclusive) in data set [4]. Turning to `O=C(CNC(=O)c1ccccn1)N/N=C/c1ccccc1`, the AC50 in [7] (read-out: AC50) is 17.8 µM (inconclusive).

For the compound `COc1cc(/C=N/NC(=O)c2ccc(N3CCCC3=O)cc2)ccc1O`, the IC50 in [2] is 30.8 µM (active). For the compound `COc1cccc(/C=N\NC(=O)c2cc(OCC(F)(F)F)ccc2OCC(F)(F)F)c1`, the AC50 is 35.5 µM (inconclusive) in data set [4] and 0.891 µM (inconclusive) in data set [7] (read-out: AC50). As for `CCSc1ncc(/C=N/Nc2ccc(F)cc2)n1C`, the AC50 in data set [4] was 1.58 µM (inconclusive); in data set [7] (read-out: AC50), 0.0794 µM (inconclusive).
